From paper PMC9914411, “Potent Xanthine Oxidase Inhibitory Activity of Constituents of Agastache rugosa (Fisch. and C.A.Mey.) Kuntze” (Foods, 2023)
Like-named read-outs stand apart in the source and are kept apart here.

Key:
bovine milk XO [1] = target: T1, bovine milk XO (Bos taurus, UniProt P80457); assay: XO inhibitory activity assay (uric acid formation from xanthine, absorbance at 295 nm); format: biochemical; conditions: for inhibition at 5 µM: read-out: XO inhibitory activity (%); for inhibition at 25 µM: read-out: Xanthine Oxidase Inhibition %
T1 construct: The bovine milk XO activity was assayed; from tissue; host or cells: bovine milk
T1 sequence (P80457 whole entry): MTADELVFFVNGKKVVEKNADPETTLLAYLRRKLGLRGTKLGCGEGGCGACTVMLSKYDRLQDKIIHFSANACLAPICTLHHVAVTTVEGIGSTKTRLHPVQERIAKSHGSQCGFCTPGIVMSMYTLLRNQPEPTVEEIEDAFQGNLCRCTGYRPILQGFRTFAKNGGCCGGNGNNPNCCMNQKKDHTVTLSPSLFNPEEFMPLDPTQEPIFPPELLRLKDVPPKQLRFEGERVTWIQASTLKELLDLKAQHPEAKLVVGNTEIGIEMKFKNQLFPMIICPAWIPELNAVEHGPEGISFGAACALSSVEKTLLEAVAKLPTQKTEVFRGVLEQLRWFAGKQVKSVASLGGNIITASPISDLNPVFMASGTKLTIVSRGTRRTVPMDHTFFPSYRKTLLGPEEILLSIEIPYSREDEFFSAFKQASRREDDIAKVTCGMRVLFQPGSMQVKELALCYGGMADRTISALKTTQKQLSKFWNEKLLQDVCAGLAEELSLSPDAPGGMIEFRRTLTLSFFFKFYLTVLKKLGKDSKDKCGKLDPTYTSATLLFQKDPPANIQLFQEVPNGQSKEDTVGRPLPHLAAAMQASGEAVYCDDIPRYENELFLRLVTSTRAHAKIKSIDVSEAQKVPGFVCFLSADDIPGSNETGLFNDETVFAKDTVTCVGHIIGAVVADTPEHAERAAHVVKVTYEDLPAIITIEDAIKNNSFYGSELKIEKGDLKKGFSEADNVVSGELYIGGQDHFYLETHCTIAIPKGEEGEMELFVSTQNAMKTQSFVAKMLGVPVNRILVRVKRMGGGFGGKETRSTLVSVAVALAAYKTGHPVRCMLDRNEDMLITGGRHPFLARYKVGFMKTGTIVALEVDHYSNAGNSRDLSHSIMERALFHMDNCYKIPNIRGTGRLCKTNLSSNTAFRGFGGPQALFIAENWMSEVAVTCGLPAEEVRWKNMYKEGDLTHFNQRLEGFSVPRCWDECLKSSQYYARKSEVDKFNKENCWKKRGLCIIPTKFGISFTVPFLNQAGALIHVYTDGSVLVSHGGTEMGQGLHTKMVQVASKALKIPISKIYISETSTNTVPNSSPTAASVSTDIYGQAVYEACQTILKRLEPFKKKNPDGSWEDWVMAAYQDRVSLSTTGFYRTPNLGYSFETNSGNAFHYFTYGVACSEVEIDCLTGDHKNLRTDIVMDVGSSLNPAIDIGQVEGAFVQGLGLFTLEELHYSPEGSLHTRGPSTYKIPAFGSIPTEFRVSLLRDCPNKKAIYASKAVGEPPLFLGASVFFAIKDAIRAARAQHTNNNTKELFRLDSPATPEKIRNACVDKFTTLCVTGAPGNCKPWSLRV
Description: The bovine milk XO activity was assayed following the previously published procedures. […] First, 125 µL of 100 mM sodium pyrophosphate buffer (HCl, pH 7.5), 30 µL of 0.1 units XO enzyme, 5 µL of test samples, and 40 µL of the substrate (0.5 mM xanthine) were mixed. […] The inhibition mechanism and constants (Km, Vmax, and Ki) of a binding site for the inhibitor to a free enzyme (KI) or an enzyme–substrate complex (KIS) were determined using the Lineweaver–Burk and Dixon plots.
The ARE was prepared using five different polar solvents (EtOH, 70% EtOH, 50% EtOH, 30% EtOH, and H2O) and tested for their XO inhibitory activity.

bovine milk XO [2] = target: T1, bovine milk XO; assay: XO kinetic assay (Lineweaver–Burk and Dixon plots, reversibility, preincubation); format: biochemical; conditions: for Xanthine Oxidase Kinetic Mode: Lineweaver–Burk and Dixon plots
Description: The bovine milk XO activity was assayed following the previously published procedures. […] First, 125 µL of 100 mM sodium pyrophosphate buffer (HCl, pH 7.5), 30 µL of 0.1 units XO enzyme, 5 µL of test samples, and 40 µL of the substrate (0.5 mM xanthine) were mixed. The reaction mixture (200 µL) in a 300 µL well plate was incubated at 37 °C and the UV absorbance at 295 nm was screened every 1 min for 15 min. The inhibition mechanism and constants (Km, Vmax, and Ki) of a binding site for the inhibitor to a free enzyme (KI) or an enzyme–substrate complex (KIS) were determined using the Lineweaver–Burk and Dixon plots. 1/V = Km/Vmax (1 + [I]/KI) 1/S + 1/Vmax(1) Slope = Km/KI Vmax [I] + Km/Vmax (2) Intercept = 1/KIS Vmax [I] + 1/Vmax (3) […]
The kinetic behaviors of the oxidation of xanthine catalyzed by XO at different concentrations of inhibitor were analyzed using both Lineweaver–Burk (Figure 3A) and Dixon plots (Figure 3B). […] The two possible inhibition mechanisms were investigated to reveal which one gives this kinetic profile. The mechanisms of mixed inhibition can be investigated through the changes of the substrate with inhibitor followed by measurements of the residual enzyme–substrate complex. Parameters of free enzyme (KI) and the enzyme–substrate complex (KIS) can be fitted to Equations (2) and (3). […] Further analysis of the progress of the inhibition was undertaken by preincubating the enzyme with 7, prior to the addition of the substrate.

[3] = isolated compounds and positive controls, read-out: Xanthine Oxidase IC50
[4] = sample concentration 25 µM for the compound

Row | Structure (SMILES) | Xanthine Oxidase Kinetic Mode (bovine milk XO [2]) | IC50 (bovine milk XO [1]; [3]) | inhibition at 25 µM (bovine milk XO [1]; [4]) | also measured
1 | Oc1ncnc2[nH]ncc12 [Allopurinol, reference compound] | Competitive |  |  | inhibition at 5 µM (bovine milk XO [1]): 51.9%; inhibition at 25 µM (bovine milk XO [1]): 82.5 ± 1.2%
2 | O=C(/C=C/c1ccc(O)c(O)c1)O[C@H](Cc1ccc(O)c(O)c1)C(=O)O [Compound 1, Rosmarinic acid] |  | > 100 µM | 27.2 ± 1.5% | 
3 | O=C(/C=C/c1ccc(O)c2c1[C@H](C(=O)O[C@H](Cc1ccc(O)c(O)c1)C(=O)O)[C@@H](c1ccc(O)c(O)c1)O2)O[C@H](Cc1ccc(O)c(O)c1)C(=O)O [Compound 2, Salvianolic acid B] |  |  | 46.1 ± 1.2% | IC50 (bovine milk XO [1]): 30.7 ± 0.8 µM
4 | COc1ccc(-c2cc(=O)c3c(O)cc(OC4OC(COC(=O)CC(=O)O)C(O)C(O)C4O)cc3o2)cc1 [Compound 4, Acacetin 7-O-(6-O-malonyl)-β-D-glucoside] |  | 80.6 ± 0.7 µM | 36.2 ± 1.4% | 
5 | COc1ccc(-c2cc(=O)c3c(O)cc(OC4OC(COC(=O)CC(=O)O)C(O)C(O)C4OC(C)=O)cc3o2)cc1 [Compound 6, Acacetin 7-O-(2″-O-acetyl-6″-O-malonyl)-β-D-glucoside] |  | > 100 µM | 26.2 ± 0.9% | 

Further compounds by falling IC50 (bovine milk XO [1]; [3]), results first:

Row | Xanthine Oxidase Kinetic Mode (bovine milk XO [2]) | IC50 (bovine milk XO [1]; [3]) | inhibition at 25 µM (bovine milk XO [1]; [4]) | Structure (SMILES) | also measured
6 |  | 74.5 ± 0.9 µM | 40.7 ± 1.5% | COc1ccc(-c2cc(=O)c3c(O)cc(OC4OC(CO)C(O)C(O)C4OC(C)=O)cc3o2)cc1 [Compound 5, Acacetin 7-O-(2″-O-acetyl)-β-D-glucoside] | 
7 |  | 26.4 ± 0.6 µM | 49.3 ± 1.5% | COc1ccc(-c2cc(=O)c3c(O)cc(O[C@@H]4O[C@H](CO)[C@@H](O)[C@H](O)[C@H]4O)cc3o2)cc1 [Compound 3, Tilianin] | 
8 | Competitive | 0.87 µM | 88.6 ± 1.2% | O=c1cc(-c2ccc(O)cc2)oc2cc(O)cc(O)c12 [Apigenin, reference compound] | inhibition at 5 µM (bovine milk XO [1]; concentration of 5 μM): 67.2%
9 | mixed type I | 0.58 ± 0.5 µM | 94.5 ± 1.4% | COc1ccc(-c2cc(=O)c3c(O)cc(O)cc3o2)cc1 [Compound 7, Acacetin] | inhibition at 5 µM (bovine milk XO [1]; concentration of 5 μM): 75.5%; Ki (bovine milk XO [2]; Dixon plots, read-out: Xanthine Oxidase Ki): 0.61 µM; Reversibility of XO inhibition (bovine milk XO [2]; activity versus enzyme concentration at 0-1.56 μM inhibitor): reversible inhibition; Inhibition as a function of preincubation time (bovine milk XO [2]; enzyme preincubated with inhibitor at 0.2 μM): time-dependent inhibitory behavior; KIS (inhibitor binding to enzyme–substrate complex) (bovine milk XO [2]; secondary plot of intercept, Equation (3)): 1.14 µM; Ki (bovine milk XO [2]; secondary plot of slope, Equation (2), read-out: KI (inhibitor binding to free enzyme)): 0.57 µM
